Source: US20250214977A1, “STAT6 INHIBITORS AND USES THEREOF” (Kymera Therapeutics, Inc., priority 2024, published 2025)

Tested on: Phosphorylation of STAT6 in human PBMC (CD19+ B cells)
Assay: Phosphorylated STAT6 (pSTAT6) flow cytometry assay in human PBMC, IL-4 stimulated
Type: cell-based
Conditions: compound 1 hour, 1 ng/ml IL-4 for 15 minutes, read-out: STAT6 IL4 pSTAT6 assay in PBMC: Average IC50
In short: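 Human PBMC preincubated 1 h at 37 °C with compound (9-point 1:3 series, top up to 30 μM), then stimulated with 1 ng/ml IL-4 for 15 min. After fixation, methanol permeabilization and staining, pSTAT6 quantified in CD19+ B cells by flow cytometry; four-parameter fit of inhibition.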

First: CN(C)C(=O)c1cc2ccc(C3=CCCN(C(=O)c4c(F)cccc4C(=O)O)C3)cc2[nH]1 [Example I-61]
Second: CN(C)C(=O)c1cc2ccc(C3=CCCN(C(=O)c4ccccc4-c4ccccc4C(=O)O)C3)cc2[nH]1 [Example I-105]
The IC50 of the first is higher: over 100 µM for the first, 10 to 100 µM for the second.

First: CN(C)C(=O)c1cc2ccc(C3=CCCN(C(=O)CC(c4ccccc4)c4ccccc4)C3)cc2[nH]1 [Example I-91]
Second: CN(C)C(=O)c1cc2ccc(C3=CCCN(C(=O)Cc4cccc(OCc5ccccc5)c4)C3)cc2[nH]1 [Example I-107]
The IC50 of the first is higher: 10 to 100 µM for the first, 0.1 to 1 µM for the second. The second is the more potent here.

`CN(C)C(=O)c1cc2ccc(C3=CCCN(C(=O)Cn4ccnn4)C3)cc2[nH]1` [Example I-37] and `Cc1cnnn1CCC(=O)N1CCC=C(c2ccc3cc(C(=O)N(C)C)[nH]c3c2)C1` [Example I-12] fall in the same range of IC50: 10 to 100 µM for the first, 10 to 100 µM for the second.

`CN(C)C(=O)c1cc2cc(C3=CCCN(C(=O)Cc4nc5ccccc5o4)C3)ccc2o1` [Example I-292] and `CN(C)C(=O)c1cc2cc(C3=CCCN(C(=O)Cn4ncc5ccccc54)C3)ccc2o1` [Example I-284] cannot be ordered by IC50: over 100 µM for the first, over 100 µM for the second.

`CN(C)C(=O)c1cc2ccc(C3=CCCN(C(=O)c4ccc(N5CCOCC5)c(F)c4)C3)cc2[nH]1` [Example I-158] and `CN(C)C(=O)c1cc2ccc(C3=CCCN(C(=O)c4ccc5c(n4)OCCO5)C3)cc2[nH]1` [Example I-58] cannot be ordered by IC50: over 100 µM for the first, over 100 µM for the second.

`CN(C)C(=O)c1cc2cc(C3=CCCN(C(=O)CCc4cccc5ccccc45)C3)ccc2o1` [Example I-291] and `CN(C)C(=O)c1cc2cc(C3=CCCN(C(=O)Cc4cccc5ccccc45)C3)ccc2o1` [Example I-294] cannot be ordered by IC50: over 100 µM for the first, over 100 µM for the second.

`CN(C)C(=O)c1cc2cc(C3=CCCN(C(=O)CCn4ccnn4)C3)cc(N3CCNCC3)c2o1` [Example I-191] and `CN(C)C(=O)c1cc2cc(C3=CCCN(C(=O)CCn4ccnn4)C3)cc(CN3CCNCC3)c2o1` [Example I-167] cannot be ordered by IC50: over 100 µM for the first, over 100 µM for the second.

`CN(C)C(=O)c1cc2cc([C@H]3CN(C(=O)CCn4ccnn4)CC[C@@H]3O)ccc2o1` (single isomer, unassigned) [Example I-210] and `COC(=O)C1CCC(c2ccc3oc(C(=O)N(C)C)cc3c2)CN1C(=O)CCn1ccnn1` (mixture of isomers) [Example I-1] cannot be ordered by IC50: over 100 µM for the first, over 100 µM for the second.

`CN(C)C(=O)c1cc2cc(C3=CCCN(C(=O)C4Cc5c(cccc5-c5ccc(O)cc5)CN4C=O)C3)ccc2o1` (stereo not shown) [Example I-187] and `CN(C)C(=O)c1cc2cc(C3=CCCN(C(=O)C4Cc5c(cccc5C5CCNCC5)CN4C=O)C3)ccc2o1` (stereo not shown) [Example I-181] cannot be ordered by IC50: over 100 µM for the first, over 100 µM for the second.

Compared with `CNc1ccc(-c2cc(C3=CCCN(C(=O)CCn4ccnn4)C3)cc3[nH]c(C(=O)N(C)C)cc23)cc1` [Example I-113], `CNc1ccc(-c2cc(C3=CCCN(C(=O)CCn4ccnn4)C3)cc3cc(C(=O)N(C)C)oc23)cc1` [Example I-204] is higher in IC50: under 0.1 µM for the first, over 100 µM for the second. The first is the more potent here.

`CN(C)C(=O)c1cc2cc(C3=CCCN(C(=O)CCc4cnccn4)C3)ccc2o1` [Example I-216] and `CN(C)C(=O)c1cc2cc(C3=CCCN(C(=O)CCc4cccnc4)C3)ccc2o1` [Example I-301] cannot be ordered by IC50: over 100 µM for the first, over 100 µM for the second.

`CN(C)C(=O)c1cc2cc(C3=CCCN(C(=O)CCn4cnc5ccccc54)C3)ccc2o1` [Example I-265] and `CN(C)C(=O)c1cc2cc(C3=CCCN(C(=O)CCn4ccc5ccccc54)C3)ccc2o1` [Example I-264] cannot be ordered by IC50: over 100 µM for the first, over 100 µM for the second.

`Cc1cccc(C)c1N1CC(C(=O)N2CCC=C(c3ccc4cc(C(=O)N(C)C)[nH]c4c3)C2)CC1=O` (stereo not shown) [Example I-97] and `CN(C)C(=O)c1cc2ccc(C3=CCCN(C(=O)C4CC(=O)N(Cc5ccccc5)C4)C3)cc2[nH]1` (stereo not shown) [Example I-88] fall in the same range of IC50: 10 to 100 µM for the first, 10 to 100 µM for the second.

First: Cc1cc(CC(=O)N2CCC=C(c3ccc4cc(C(=O)N(C)C)[nH]c4c3)C2)on1 [Example I-133]
Second: Cc1nocc1C(=O)N1CCC=C(c2ccc3cc(C(=O)N(C)C)[nH]c3c2)C1 [Example I-35]
The IC50 of the first is higher: over 100 µM for the first, 10 to 100 µM for the second. The second is the more potent here.

`C[C@H]1CCCCN1C(=O)c1cc2ccc(C3=CCCN(C(=O)CCn4ccnn4)C3)cc2[nH]1` (single isomer, unassigned) [Example I-129] and `O=C(CCn1ccnn1)N1CCC=C(c2ccc3cc(C(=O)N4CCCC4)[nH]c3c2)C1` [Example I-124] cannot be ordered by IC50: over 100 µM for the first, over 100 µM for the second.

`CN(C)C(=O)c1cc2cc(C3=CCCN(C(=O)CCc4cncnc4)C3)ccc2o1` [Example I-272] and `CN(C)C(=O)c1cc2cc(C3=CCCN(C(=O)Cc4cncnc4)C3)ccc2o1` [Example I-293] cannot be ordered by IC50: over 100 µM for the first, over 100 µM for the second.

Compared with `C[C@@H](Cn1ccnn1)C(=O)N1CCC=C(c2ccc3oc(C(=O)N(C)C)cc3c2)C1` (single isomer, unassigned) [Example I-229], `C[C@H](Cn1ccnn1)C(=O)N1CCC=C(c2ccc3oc(C(=O)N(C)C)cc3c2)C1` (single isomer, unassigned) [Example I-228] is lower in IC50: over 100 µM for the first, 10 to 100 µM for the second.

`CN(C)C(=O)c1cc2cc(C3=CCCN(C(=O)Cn4cccn4)C3)ccc2o1` [Example I-261] and `CN(C)C(=O)c1cc2cc(C3=CCCN(C(=O)CCn4ccnc4)C3)ccc2o1` [Example I-310] cannot be ordered by IC50: over 100 µM for the first, over 100 µM for the second.

First: CN(C)C(=O)c1cc2ccc(C3=CCCN(C(=O)C4ON=C(c5ccccc5)O4)C3)cc2[nH]1 (stereo not shown) [Example I-71]
Second: CN(C)C(=O)c1cc2ccc(C3=CCCN(C(=O)C4Cc5ccccc5CN4C=O)C3)cc2[nH]1 (stereo not shown) [Example I-202]
The IC50 of the first is higher: 10 to 100 µM for the first, 0.1 to 1 µM for the second. The second is the more potent here.

`Cc1nc(-c2ccccc2F)c(C(=O)N2CCC=C(c3ccc4cc(C(=O)N(C)C)[nH]c4c3)C2)o1` [Example I-89] and `Cc1cccc(-c2ncccc2C(=O)N2CCC=C(c3ccc4cc(C(=O)N(C)C)[nH]c4c3)C2)c1` [Example I-86] cannot be ordered by IC50: over 100 µM for the first, over 100 µM for the second.

`CN(C)C(=O)c1cc2cc(C3=CCCN(C(=O)Cc4ccc5c(c4)CN(C(=O)OC(C)(C)C)CC5)C3)ccc2o1` [Example I-259] and `CN(C)C(=O)c1cc2cc(C3=CCCN(C(=O)CN4CCc5ccccc5C4)C3)ccc2o1` [Example I-296] cannot be ordered by IC50: over 100 µM for the first, over 100 µM for the second.

`CN(C)C(=O)c1cc2cc(C3=CCCN(C(=O)Cc4ccc5nccnc5c4)C3)ccc2o1` [Example I-297] and `CN(C)C(=O)c1cc2cc(C3=CCCN(C(=O)Cc4ncccn4)C3)ccc2o1` [Example I-249] cannot be ordered by IC50: over 100 µM for the first, over 100 µM for the second.

`CN(C)C(=O)c1cc2ccc(C3=CCCN(C(=O)CCc4ccc(C#N)cc4)C3)cc2[nH]1` [Example I-162] and `CN(C)C(=O)c1cc2ccc(C3=CCCN(C(=O)CCc4nnc[nH]4)C3)cc2[nH]1` [Example I-21] cannot be ordered by IC50: over 100 µM for the first, over 100 µM for the second.

`O=C(NCCO)c1cc2cc(C3=CCCN(C(=O)CCn4ccnn4)C3)ccc2o1` [Example I-307] and `CCCN(C)C(=O)c1cc2cc(C3=CCCN(C(=O)CCn4ccnn4)C3)ccc2o1` [Example I-235] cannot be ordered by IC50: over 100 µM for the first, over 100 µM for the second.

First: CC(C(=O)N1CCC=C(c2ccc3cc(C(=O)N(C)C)[nH]c3c2)C1)n1ccccc1=O (stereo not shown) [Example I-53]
Second: CC(=O)NC(C(=O)N1CCC=C(c2ccc3cc(C(=O)N(C)C)[nH]c3c2)C1)c1cccc(Cl)c1 (stereo not shown) [Example I-77]
The IC50 of the first is lower: 1 to 10 µM for the first, 10 to 100 µM for the second.

`CC(=O)NCc1ccccc1-c1ccccc1CC(=O)N1CCC=C(c2ccc3oc(C(=O)N(C)C)cc3c2)C1` [Example I-219] and `CC(=O)N1Cc2ccccc2CC1C(=O)N1CCC=C(c2ccc3oc(C(=O)N(C)C)cc3c2)C1` (stereo not shown) [Example I-232] cannot be ordered by IC50: over 100 µM for the first, over 100 µM for the second.

`CN(C)C(=O)c1cc2ccc(C3=CCCN(C(=O)c4cc(=O)c(OCc5ccccc5)c[nH]4)C3)cc2[nH]1` [Example I-110] and `CN(C)C(=O)c1cc2ccc(C3=CCCN(C(=O)[C@@H](N)Cc4cccc(F)c4)C3)cc2[nH]1` [Example I-65] cannot be ordered by IC50: over 100 µM for the first, over 100 µM for the second.

`CC(=O)NC(Cn1ccnn1)C(=O)N1CCC=C(c2ccc3oc(C(=O)N(C)C)cc3c2)C1` (stereo not shown) [Example I-179] and `CC(=O)N1CCc2ccccc2[C@@H]1C(=O)N1CCC=C(c2ccc3oc(C(=O)N(C)C)cc3c2)C1` (single isomer, unassigned) [Example I-177] cannot be ordered by IC50: over 100 µM for the first, over 100 µM for the second.

`CN(C)C(=O)c1cc2ccc(C3=CCCN(C(=O)c4nonc4C4CC4)C3)cc2[nH]1` [Example I-44] and `CN(C)C(=O)c1cc2ccc(C3=CCCN(C(=O)c4cn(C5CC5)nn4)C3)cc2[nH]1` [Example I-45] fall in the same range of IC50: 10 to 100 µM for the first, 10 to 100 µM for the second.

First: COC(=O)C1CCC(c2ccc3oc(C(=O)N(C)C)cc3c2)CN1C(=O)CCn1ccnn1 (mixture of isomers) [Example I-2]
Second: CNCc1cc(C2=CCCN(C(=O)CCn3ccnn3)C2)cc2cc(C(=O)N(C)C)oc12 [Example I-203]
The IC50 of the first is higher: over 100 µM for the first, 10 to 100 µM for the second. The second is the more potent here.

`CN(C)C(=O)c1cc2cc(C3=CCCN(C(=O)CCc4nncs4)C3)ccc2o1` [Example I-147] and `CN(C)C(=O)c1cc2cc(C3=CCCN(C(=O)CCc4ccc5c(c4)OCO5)C3)ccc2o1` [Example I-282] cannot be ordered by IC50: over 100 µM for the first, over 100 µM for the second.

`CN(C)C(=O)c1cc2ccc(C3=CCCN(C(=O)C4CC4F)C3)cc2[nH]1` (stereo not shown) [Example I-25] and `CN(C)C(=O)c1cc2ccc(C3=CCCN(C(=O)[C@@H]4CCCN4C(=O)c4ccc(F)cc4)C3)cc2[nH]1` [Example I-99] cannot be ordered by IC50: over 100 µM for the first, over 100 µM for the second.

`CCC(=O)N1Cc2ccccc2CC1C(=O)N1CCC=C(c2ccc3oc(C(=O)N(C)C)cc3c2)C1` (stereo not shown) [Example I-189] and `CN(C)C(=O)c1nc2ccc(C3=CCCN(C(=O)C4Cc5ccccc5CN4C=O)C3)cc2[nH]1` (stereo not shown) [Example I-198] cannot be ordered by IC50: over 100 µM for the first, over 100 µM for the second.

First: CN(C)C(=O)c1nc2cc(C3=CCCN(C(=O)CCc4ccccn4)C3)ccc2[nH]1 [Example I-199]
Second: CN(C)C(=O)c1cc2ccc(C3=CCCN(C(=O)CCCn4ncc5nc(Cl)ccc54)C3)cc2[nH]1 [Example I-90]
The IC50 of the first is higher: over 100 µM for the first, 10 to 100 µM for the second. The second is the more potent here.

Compared with `CC(=O)N1CCN(c2cc(C3=CCCN(C(=O)CCn4ccnn4)C3)cc3cc(C(=O)N(C)C)oc23)CC1` [Example I-207], `CN(C)C(=O)c1cc2cc(C3=CCCN(C(=O)CCn4ccnn4)C3)cc(-c3ccc(O)cc3)c2o1` [Example I-205] is lower in IC50: over 100 µM for the first, 0.1 to 1 µM for the second. The second is the more potent here.
